Reference: patent US7820374B2, “Detection methods based on HR23 protein binding molecules” (Erasmus Universiteit Rotterdam, priority 2001, dated 2010)
Where a SMILES comes first, the peptide text is derived from it. The star is where a group is joined. Cbz = O=C(OCc1ccccc1)*

Key:
[1] = system: DKO cells expressing hXPC-GFP/hHR23B; test: XPC-GFP accumulation in living DKO cells expressing hXPC-GFP/hHR23B after exposure to agents (fluorescence microscopy); type: cell-based, mouse
Procedure: Cells stably expressing hXPC-GFP/hHR23B were rinsed with PBS, exposed to UV-C light (254 nm; Philips TUV lamp, dose as indicated in the text) and subsequently cultured at 37° C. for various time periods (as indicated in the text). XPC was detected either by immunoblot analysis or by visualization in living cells using fluorescence microscopy. A similar approach was used to study the effect of N-acetoxy-2-acetylaminofluorene (NA-AAF, final concentration 50 or 100 μM), mitomycin C (MMC, Sigma, final concentration 1.2 or 2.4 μg/ml), ionizing radiation (γ-rays from a ^137Cs source, single dose of 6 and 10 Gy), the proteasome inhibitor N-CBZ-LEU-LEU-LEU-AL (CBZ-LLL, Sigma, final concentration 5 or 10 μM), the transcription inhibitor 5,6-dichloro-1β-D-ribofuranosyl-benzimidazole (DRB, Sigma, final concentration of 100 μM, 2-3 hrs), the translation inhibitor cyclohexamide (CHX, Boehringer, final concentration 30, 50, and 100 μg/ml, 1-3 hours), heat shock (39.5 and 41° C., for 2-12 hrs), and the nuclear export inhibitor leptomycin B (LMB, Sigma, final concentration 10 ng/ml).
Immunofluorescent microscopy images were obtained with either a Leitz Aristoplan microscope equipped with epifluorescene optics and a PlanApo 63×/1.40 oil immersion lens or a Leica DMRBE microscope equipped with epifluorescene optics and a PL Fluotar 100×/1.30 oil immersion lens. For the detection of GFP-tagged proteins in the living cell, an Olympus IX70 microscope equipped with epifluorescence optics and Olympus PlanApo 60×/1.40 oil immersion lens was used. GFP images were obtained after excitation with 455-490 and long pass emission filter (>510 nm). Cy-3 images were obtained after excitation with 515-560 and long pass emission filter (580 nm).

[2] = system: CRM1/Exportin1-mediated nuclear export of XPC-GFP; test: Heterokaryon nuclear-cytoplasmic shuttling assay (DKO cells expressing XPC-GFP/hHR23B fused to HeLa cells); type: cell-based, mouse/human heterokaryon; settings: LMB 10 ng/ml directly after cell fusion; XPC-GFP induced by 10 J/m^2 UV-C 6 hr prior to fusion; 4 hr after fusion
Procedure: The shuttling assay using heterokaryons was performed as described (Borer et al., 1989). One day before cell fusion, DKO cells stably expressing hXCPC-GFP/hHR23B and HeLa cells were seeded in a 1:1 ratio on coverslips. Six hours prior to fusion, cells were irradiated with 10 J/m^2 UV-C or treated with 10 μM CBZ-LLL. Cell-fusion was induced (after washing with PBS) by treatment with 50% polyethylene glycol 6,000 in HANKS™ (Gibco) for 2 min followed by (3×) washing with PBS. Finally, cells were cultured in fresh medium either supplemented with or without leptomycin B (LMB, final concentration 10 ng/ml). Three to five hours after fusion, cells were fixed with 2% paraformaldehyde and immunostained with rat monoclonal anti-HA (to monitor the XPC-GFP-His6HA protein) and rabbit polyclonal anti-human ERCC1 (to distinguish human nuclei from mouse nuclei, since it specifically recognizes human ERCC1) and subsequently with appropriate secondary antibodies (see above).

Q: Which results are given for `CC(C)C[C@@H](C=O)NC(=O)[C@H](CC(C)C)NC(=O)[C@H](CC(C)C)NC(=O)OCc1ccccc1` [CBZ-LLL, N-CBZ-LEU-LEU-LEU-AL] (Cbz-Leu-Leu-Leu-aldehyde)?
A: reversibility of XPC-GFP accumulation ([1]; CBZ-LLL 5 and 10 μM, after drug removal (not shown)): reversible upon drug removal; XPC-GFP accumulation ([1]; CBZ-LLL 5 and 10 μM, confirmed by immunoblot and anti-HA immunocytochemistry): all cells displayed a striking XPC-GFP accumulation in time

Q: What does the source list for `OC[C@H]1O[C@@H](n2cnc3cc(Cl)c(Cl)cc32)[C@H](O)[C@@H]1O` [DRB, 5,6-dichloro-1β-D-ribofuranosyl-benzimidazole]?
A: induction of XPC-GFP fluorescence ([1]; DRB 100 μM alone, no DNA damage): No induction of XPC-GFP fluorescence was observed; UV-induced XPC-GFP accumulation ([1]; preincubation with DRB (2-3 hrs) prior to UV treatment, data not shown): prevented UV-induced XPC-GFP accumulation

Q: `CCC(=C/[C@H](C)C/C=C/C(C)=C/[C@@H](C)C(=O)[C@@H](C)[C@H](O)[C@@H](C)C/C(C)=C/C(=O)O)/C=C/[C@@H]1OC(=O)C=C[C@@H]1C` [LMB, leptomycin B] was tested. Which “exchange of nuclear XPC-GFP from mouse (DKO) nuclei to human (HeLa) nuclei” value [2] did it give?
A: prevented this exchange

Q: With `CO[C@@]12[C@H](COC(N)=O)C3=C(C(=O)C(C)=C(N)C3=O)N1C[C@@H]1N[C@@H]12` [MMC, mitomycin C] as the molecule, how does the “XPC accumulation (hXPC-GFP fluorescence)” value ([1]; MMC 1.2 and 2.4 μg/ml) read?
A: failed to provoke detectable XPC accumulation

Q: How did the “XPC accumulation (hXPC-GFP fluorescence)” value ([1]; NA-AAF 50 and 100 μM, within 6 to 8 hrs) turn out when `CC(=O)ON(C(C)=O)c1ccc2c(c1)Cc1ccccc1-2` [NA-AAF, N-acetoxy-2-acetylaminofluorene] was run?
A: very potent UV-like response in all cells

Q: `C[C@@H]1C[C@@H]([C@H](O)CC2CC(=O)NC(=O)C2)C(=O)[C@@H](C)C1` [cyclohexamide] was tested. Which XPC fluorescence ([1]; cyclohexamide 30 and 50 μg/ml) did it give?
A: no enhanced XPC fluorescence was found
